# ChEMBL document CHEMBL1149901, “Complex sesquiterpenoids with tyrosinase inhibitory activity from the leaves of Chloranthus tianmushanensis” (J Nat Prod, 2008)
# Active and inactive are the calls of the source. No cut-off for these calls is given here.
# Target: T1, Tyrosinase (Agaricus bisporus, UniProt O42713)
# T1 sequence (O42713 whole entry): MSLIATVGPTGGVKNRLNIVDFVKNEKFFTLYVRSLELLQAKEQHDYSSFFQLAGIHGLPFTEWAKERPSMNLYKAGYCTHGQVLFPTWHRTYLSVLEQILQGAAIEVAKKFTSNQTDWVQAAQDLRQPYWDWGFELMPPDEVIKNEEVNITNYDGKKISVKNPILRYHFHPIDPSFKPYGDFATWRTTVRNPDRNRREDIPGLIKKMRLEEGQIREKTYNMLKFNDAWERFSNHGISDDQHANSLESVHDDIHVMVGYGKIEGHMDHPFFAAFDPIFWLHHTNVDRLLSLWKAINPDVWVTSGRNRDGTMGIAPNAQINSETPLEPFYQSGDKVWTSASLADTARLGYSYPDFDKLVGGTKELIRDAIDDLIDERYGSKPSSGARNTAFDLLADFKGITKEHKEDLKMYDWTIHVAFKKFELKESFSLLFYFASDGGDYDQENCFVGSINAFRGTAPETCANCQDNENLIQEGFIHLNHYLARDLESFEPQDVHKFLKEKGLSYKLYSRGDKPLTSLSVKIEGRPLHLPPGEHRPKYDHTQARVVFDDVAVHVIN
# Description: Inhibition of Mushroom tyrosinase
row,Structure (SMILES),IC50 [µM]
1,CO[C@@]12OC(=O)C(C)=C1C1=C3[C@](C)([C@@H]4C[C@@H]4[C@@]3(O)C[C@@H]3[C@]14OC(=O)C1=C4C[C@H]4[C@](O)(COC(=O)/C(C)=C/COC(=O)CCC(=O)OC1)[C@H]1C[C@H]1[C@]34C)[C@H]2O,312
2,CC1=C2C3=C4[C@](C)([C@@H]5C[C@@H]5[C@@]4(O)C[C@@H]4[C@]35OC(=O)C3=C5C[C@H]5[C@](O)(COC(=O)/C(C)=C/COC(=O)CCC(=O)OC3)[C@H]3C[C@H]3[C@]45C)[C@@H](O)[C@]2(O)OC1=O [TIANMUSHANOL],358

# Target: T2, Tyrosinase (Agaricus bisporus) (UniProt O42713)
# T2 sequence (whole entry): T1 sequence (O42713 whole entry)
# Description: Inhibition of Mushroom tyrosinase
row,Structure (SMILES),Activity
1,CC1=C2C/C=C(\C)CC/C=C(\C)C[C@@H]2OC1=O,inactive
2,C/C1=C\Cc2c(C)coc2C/C(C)=C/CC1,inactive

# Continued, values first:
row,Activity,Structure (SMILES)
1,inactive,C=C1CCC[C@]2(C)C[C@]3(O)OC(=O)C(C)=C3C[C@@H]12
2,inactive,C=C1[C@H]2C[C@H]2[C@]2(C)C=C3OC(=O)C(C)=C3C[C@@H]12
